Among the data in patent publication US10820591B2, “Substituted sulfonyl amides for controlling animal pests” (Bayer Aktiengesellschaft, priority 2016, dated 2020) are pest or weed control values, retold here.

This assay concerns Meloidogyne incognita. Description: Meloidogyne incognita test (sand, lettuce, gall formation). Conditions: Meloidogyne incognita, 336 h, 20 ppm, after 14 days; read-out: nematicidal efficacy (formation of galls). It is filed as in vivo. The gist of the method: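 Vessels held sand, diluted compound solution, M. incognita egg/larvae suspension and lettuce seeds, and the plants grew for 14 days. Efficacy in % came from root gall formation: 100% means no galls, 0% means galls equal to the untreated control.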
Turning to `CCc1nc(C(=O)NS(=O)(=O)c2cc(OC)ccc2Cl)cn1-c1cc(F)cc(Cl)c1` [I-406], the pest or weed control at 20 ppm amounted to 100%.
As for `CCc1nc(C(=O)NS(=O)(=O)c2cc(OC)ccc2Cl)cn1-c1cc(Cl)cc(C(F)(F)F)c1` [I-407], the figure is 100%; as for `COc1ccc(Cl)c(S(=O)(=O)NC(=O)c2cn(-c3cc(F)cc(Cl)c3)c(C(C)C)n2)c1` [I-408], 100%; as for `Cc1nc(C(=O)NS(=O)(=O)C(C)C)cn1-c1cc(Cl)cc(Cl)c1` [I-409], 100%.
As for `COc1ccc(S(=O)(=O)NC(=O)c2cn(-c3cc(F)cc(F)c3)c(C)n2)cc1` [I-410], the figure is 100%.
Regarding `COc1ccc(S(=O)(=O)NC(=O)c2cn(-c3cc(Cl)cc(Cl)c3)c(C)n2)cc1` [I-411], the pest or weed control at 20 ppm was 100%.
As for `COc1ccc(Cl)c(S(=O)(=O)NC(=O)c2nc(C)n(-c3cc(Cl)cc(Cl)c3)c2F)c1` [I-413], the figure is 100%; as for `O=C(NS(=O)(=O)c1ccccc1)c1ncn(-c2ccc(Cl)cc2)c1Cl` [I-414], 100%.
As to `COc1ccc(S(=O)(=O)NC(=O)c2ncn(-c3ccc(Cl)cc3)c2Cl)cc1` [I-415], the pest or weed control at 20 ppm is 90%.
As for `O=C(NS(=O)(=O)c1ccccc1Cl)c1ncn(-c2ccc(Cl)cc2)c1Cl` [I-416], the figure is 100%.
As for `O=C(NS(=O)(=O)c1cccc(Cl)c1)c1ncn(-c2ccc(Cl)cc2)c1Cl` [I-417], the figure is 100%; as for `O=C(NS(=O)(=O)c1ccc(Cl)cc1)c1ncn(-c2ccc(Cl)cc2)c1Cl` [I-418], 100%.
`COc1cccc(S(=O)(=O)NC(=O)c2ncn(-c3ccc(Cl)cc3)c2Cl)c1` [I-419]: the pest or weed control at 20 ppm was determined as 100%.
As for `COc1ccccc1S(=O)(=O)NC(=O)c1ncn(-c2ccc(Cl)cc2)c1Cl` [I-420], the figure is 100%.
As for `O=C(NS(=O)(=O)c1ccccc1)c1ncn(-c2ccc(C(F)(F)F)cc2)c1Cl` [I-421], the figure is 100%; as for `O=C(NS(=O)(=O)c1cccc(Cl)c1)c1ncn(-c2ccc(C(F)(F)F)cc2)c1Cl` [I-422], 100%.
As for `O=C(NS(=O)(=O)c1ccccc1Cl)c1ncn(-c2ccc(C(F)(F)F)cc2)c1Cl` [I-423], the figure is 100%; as for `COc1ccccc1S(=O)(=O)NC(=O)c1ncn(-c2ccc(C(F)(F)F)cc2)c1Cl` [I-424], 100%; as for `COc1cccc(S(=O)(=O)NC(=O)c2ncn(-c3ccc(C(F)(F)F)cc3)c2Cl)c1` [I-425], 100%.
As for `COc1ccc(S(=O)(=O)NC(=O)c2ncn(-c3ccc(C(F)(F)F)cc3)c2Cl)cc1` [I-426], the pest or weed control at 20 ppm came out at 90%.
For `O=C(NS(=O)(=O)c1ccc(Cl)cc1)c1ncn(-c2ccccc2C(F)(F)F)c1Cl` [I-427], the pest or weed control at 20 ppm worked out at 100%.
As for `O=C(NS(=O)(=O)c1cccc(Cl)c1)c1ncn(-c2ccccc2C(F)(F)F)c1Cl` [I-428], the figure is 90%; as for `COc1cccc(S(=O)(=O)NC(=O)c2ncn(-c3ccccc3C(F)(F)F)c2Cl)c1` [I-429], 90%.
As for `COc1ccc(S(=O)(=O)NC(=O)c2ncn(-c3ccccc3C(F)(F)F)c2Cl)cc1` [I-430], the figure is 90%.
For `O=C(NS(=O)(=O)c1ccc(Cl)cc1)c1ncn(-c2cccc(C(F)(F)F)c2)c1Cl` [I-431], the pest or weed control at 20 ppm is 90%.
Regarding `O=C(NS(=O)(=O)c1cccc(Cl)c1)c1ncn(-c2cccc(C(F)(F)F)c2)c1Cl` [I-432], the pest or weed control at 20 ppm was found to be 90%.
As for `O=C(NS(=O)(=O)c1ccccc1Cl)c1ncn(-c2cccc(C(F)(F)F)c2)c1Cl` [I-433], the figure is 100%.
Consider `O=C(NS(=O)(=O)c1ccccc1)c1ncn(-c2cccc(C(F)(F)F)c2)c1Cl` [I-434], for which the pest or weed control at 20 ppm was 100%.
